Our source for the EC50 and IC50 values is patent US9474759B2 (priority 2011, dated 2016).

Like-named read-outs stand apart in the source and are kept apart here.

One assay concerns FIPV-1146. In words: FIPV-1146 replication in CRFK cells, TCID50 method. In kind it is cell-based, feline coronavirus. Particulars: Alphacoronavirus 1, MOI 0.05, mean ± SEM. The procedure:
(§1) Crandell Rees feline kidney (CRFK) cells were maintained in minimal essential medium containing 2-5% fetal bovine serum and antibiotics (chlortetracycline [25 μg/ml], penicillin [250 U/ml], and streptomycin [250 μg/ml]). FIPV WSU 79-1146 and FECV WSU 79-1683 strains are the prototypes of serotype II FIPV or FECV, respectively, and were purchased from ATCC (Manassas, Va.).
(§2) The cells were further incubated in the presence of each compound for 1 hr at 37° C. Then […] or FECV-1683 was inoculated to the cells at a multiplicity of infection (MOI) of 0.05 or 5.
(§3) b. TCID50 Method. A standard TCID50 method with the 10-fold dilution of each sample was used for virus titration.

In assay [1] the target is T1, MD145 3CLpro (codon-optimized, full-length, N-terminal 6 His, recombinant) (Lordsdale virus, UniProt P54634). The assay can be described thus: biochemical. Further details: species or system norovirus strain MD145 (human norovirus GII).
T1 sequence (P54634 1009-1189): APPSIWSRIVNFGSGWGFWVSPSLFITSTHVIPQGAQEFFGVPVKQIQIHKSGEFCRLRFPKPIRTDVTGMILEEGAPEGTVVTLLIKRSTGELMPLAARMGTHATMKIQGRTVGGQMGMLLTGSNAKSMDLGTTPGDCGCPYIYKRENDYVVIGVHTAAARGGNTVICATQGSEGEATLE
Another assay concerns the target TGEV 3CL protease (Porcine transmissible gastroenteritis coronavirus, UniProt P0C6Y5). The assay can be described thus: FRET-based protease assay, TGEV 3CL protease (Example 5). It is filed as biochemical, TGEV Miller strain. The settings on record: TGEV 3CL protease; read-out: IC50 against 3CL protease in the FRET assay. From the text:
The 3CL proteases are highly conserved among all coronaviruses, and feline coronavirus 3CL protease is closely related TGEV 3CL protease. Therefore we cloned and expressed the TGEV 3CL protease for the FRET assay. The cDNA encoding the full length of 3CL protease of TGEV Miller strain was amplified with RT-PCR as previously described. The primers contained the nucleotide sequence of the 3CL protease for cloning as well as the nucleotides for 6 Histidine in the forward primer. The amplified product was subcloned to pET-28a(+) vector (GenScript, Piscataway, N.J.). The expression and purification of the 3CL protease was performed with a standard method described previously by our lab (Chang et al., 2012b; Takahashi et al., 2012; Tiew et al., 2011).
Our protease inhibitor compounds and commercial cathepsin inhibitors CA074-Me and E64d were prepared in DMSO as stock solutions (10 mM), and further diluted in assay buffer consisting of 20 mM HEPES, 0.4 mM EDTA, 30% glycerol, 120 mM NaCl, and 4 mM DTT at pH 6. […] TGEV 3CL protease at a final concentration of 0.1˜0.2 μM and the substrate (Dabcyl-[…]-Edans; SEQ ID NO:2) at 10 μM were used for the studies. The substrate was purchased from Bachem Americas, Inc (Torrance, Calif.). Compounds at various concentrations (0˜50 μM) were pre-incubated with TGEV 3CL protease in 25 μl for 30 min at 37° C., and the same volume of substrate was added to a 96-well black plate. The mixtures were then incubated at 37° C. for 60 min, and fluorescence readings were obtained on a microplate reader at 360 nm excitation and 480 nm emission wavelengths. The relative fluorescence units (RFU) were calculated by subtracting background (substrate control well without protease) from the fluorescence readings. The dose-dependent FRET inhibition curves were fitted with variable slope (four parameters) using GraphPad Prism software (La Jolla, Calif.) in order to determine the compound concentration that gives a half-maximum response (IC50).

Assay [2] concerns MNV-1. The assay can be described thus: Cell-based screening, MNV-1 in RAW267.4 cells (Example 2). Also on record: species or system murine norovirus. Particulars: Norwalk virus; RAW267.4 cells; read-out: Inhibition [ED50 (μM)] against various viruses: Calicivirus, MNV-1. The method, then:
(§4) 3. Cell-based screening of inhibitor. The effects of each inhibitor on the viral replication were examined. The list of viruses and corresponding cell lines are listed above in Table 2. Briefly, confluent cells were inoculated with virus at a MOI of 5 or 0.05 for 1 hr, and medium was replaced with medium containing mock-medium or each compound (up to 100 μM). The virus infected cells were further incubated for up to 96 hrs, and the replication of virus was measured by TCID50 assay with the 10-fold dilution of each sample used for virus titration (Reed and Muench, 1938). In some viruses, the virus protein and genome expression levels were detected by Western blot analysis and real-time qRT-PCR, respectively, as described below. The IC50s of the compounds were calculated.

Assay [3] deals with FMDV 3Cpro (codon-optimized, N-terminal 6 His, recombinant) (Foot-and-mouth disease virus serotype O, UniProt P03305). The assay can be described thus: biochemical.
Sequence of FMDV 3Cpro (codon-optimized, N-terminal 6 His, recombinant) (P03305 1650-1862 limits assumed): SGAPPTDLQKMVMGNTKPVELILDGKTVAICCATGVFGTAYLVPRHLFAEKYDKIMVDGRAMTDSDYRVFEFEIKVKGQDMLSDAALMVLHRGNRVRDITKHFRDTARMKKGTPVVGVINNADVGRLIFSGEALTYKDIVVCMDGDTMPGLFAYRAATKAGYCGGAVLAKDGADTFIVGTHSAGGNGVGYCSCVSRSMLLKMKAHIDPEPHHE
Assay [4] deals with NV 3CLpro (codon-optimized, full-length, N-terminal 6 His, recombinant) (Norovirus, UniProt Q83883). In words: biochemical. Further details: species or system norovirus strain Norwalk.
Sequence of NV 3CLpro (codon-optimized, full-length, N-terminal 6 His, recombinant) (Q83883 1101-1281): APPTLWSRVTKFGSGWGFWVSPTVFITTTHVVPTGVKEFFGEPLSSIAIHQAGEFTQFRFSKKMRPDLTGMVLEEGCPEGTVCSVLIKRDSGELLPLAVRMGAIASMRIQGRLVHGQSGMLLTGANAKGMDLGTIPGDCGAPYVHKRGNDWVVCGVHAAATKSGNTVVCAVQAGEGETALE
The subject of the next assay is 229E. In words: Cell-based screening, 229E in MRC-5 cells (Example 2). Particulars: Human coronavirus 229E, MRC5; MRC-5 cells; read-out: Inhibition [ED50 (μM)] against various viruses: Coronavirus, 229E. The method, then:
as §4

The test system of assay [5] is Norwalk virus (HG23 cells). In words: microbe, parasite or virus in culture. Particulars: HG23, read-out: Inhibition [ED50 (μM)] against various viruses: Calicivirus, HG23 cells. In kind it is cell-based.
Assay [6] addresses PV 3Cpro (codon-optimized, N-terminal 6 His, recombinant) (Poliovirus type 1, UniProt P03300). In words: biochemical. Also on record: species or system poliovirus (poliomyelitis virus).
Assay [7] has as its target recombinant 3C or 3CL of MD145 (Norovirus Hu/GII.4/MD145-12/1987/US (Maryland virus), UniProt Q8V0P3). The assay can be described thus: FRET protease assay, MD145 3CL (Example 2). It is filed as biochemical, norovirus strain MD145.
Assay [8] concerns MNV-1. The assay can be described thus: microbe, parasite or virus in culture. The settings on record: Norwalk virus, read-out: Initial IC50 values against MNV-1.
A further assay has as its system FIPV. The assay can be described thus: Cell-based screening, FIPV in CRFK cells (Example 2). Further details: species or system feline infectious peritonitis virus. The settings on record: Alphacoronavirus 1; CRFK cells; read-out: Inhibition [ED50 (μM)] against various viruses: Coronavirus, FIPV. The procedure:
as §4

Another assay concerns EV71. In words: Cell-based screening, EV71 in Vero cells (Example 2). Also on record: species or system enterovirus 71. The settings on record: Enterovirus A, EV71; Vero cells; read-out: Inhibition [ED50 (μM)] against various viruses: Picornavirus, EV71. The procedure: as §4
Another assay has as its system HAV. In words: Cell-based screening, HAV (Example 2). Further details: species or system hepatitis A virus. The settings on record: Picornaviridae; read-out: Inhibition [ED50 (μM)] against various viruses: Picornavirus, HAV. The method, then: as §4
Assay [9] deals with MNV-1 3CLpro (codon-optimized, full-length, recombinant) (Norovirus, UniProt Q80J95). The assay can be described thus: biochemical. Also on record: species or system murine norovirus-1 (GV).
Sequence of MNV-1 3CLpro (codon-optimized, full-length, recombinant) (Q80J95 995-1177): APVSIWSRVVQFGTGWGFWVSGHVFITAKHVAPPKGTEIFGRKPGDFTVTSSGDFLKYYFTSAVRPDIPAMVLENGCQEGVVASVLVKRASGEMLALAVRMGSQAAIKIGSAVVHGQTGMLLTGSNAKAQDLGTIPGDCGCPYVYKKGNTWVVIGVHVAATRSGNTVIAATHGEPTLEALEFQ
The test system of another assay is FECV-1683. In words: FECV-1683 replication in CRFK cells, TCID50 method. In kind it is cell-based, feline coronavirus. Particulars: Alphacoronavirus 1, MOI 0.05, mean ± SEM. The method, then:
as §1, §2, §3

For assay [10], the system named is FCV. In words: Cell-based screening, FCV in CRFK cells (Example 2). The settings on record: Feline calicivirus; CRFK cells; read-out: Inhibition [ED50 (μM)] against various viruses: Calicivirus, FCV. The method, then:
as §4

The test system of the next assay is TGEV. In words: Cell-based screening, TGEV in ST cells (Example 2). Also on record: species or system transmissible gastroenteritis virus. The settings on record: Alphacoronavirus 1; ST cells; read-out: Inhibition [ED50 (μM)] against various viruses: Coronavirus, TGEV. The method, then: as §4
A further assay deals with Teschovirus. The assay can be described thus: organism not typed. In kind it is cell-based, porcine teschovirus. The settings on record: read-out: Inhibition [ED50 (μM)] against various viruses: Picornavirus, Teschovirus.
The test system of assay [11] is FCV. In words: Cell culture system, FCV replication in CRFK cells (Example 3). The settings on record: Feline calicivirus; cell-based assay, CRFK cells; read-out: IC50 against FCV replication. It is filed as cell-based, feline calicivirus.
The target of assay [12] is T1, MD145 3CLpro (codon-optimized, full-length, N-terminal 6 His, recombinant). In words: biochemical. Further details: species or system norovirus strain MD145.
The target of assay [13] is HRV 3Cpro (recombinant, purchased from EMD chemicals) (Human rhinovirus 14, UniProt P03303). The assay can be described thus: biochemical.
Sequence of HRV 3Cpro (recombinant, purchased from EMD chemicals) (P03303 1538-1719): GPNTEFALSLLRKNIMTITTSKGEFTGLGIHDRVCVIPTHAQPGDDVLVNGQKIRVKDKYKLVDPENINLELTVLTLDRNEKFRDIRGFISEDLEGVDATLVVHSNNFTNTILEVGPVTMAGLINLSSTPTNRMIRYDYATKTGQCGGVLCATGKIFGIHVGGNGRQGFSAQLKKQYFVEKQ

Sequence of PV 3Cpro (codon-optimized, N-terminal 6 His, recombinant) (P03300 1566-1748 limits assumed): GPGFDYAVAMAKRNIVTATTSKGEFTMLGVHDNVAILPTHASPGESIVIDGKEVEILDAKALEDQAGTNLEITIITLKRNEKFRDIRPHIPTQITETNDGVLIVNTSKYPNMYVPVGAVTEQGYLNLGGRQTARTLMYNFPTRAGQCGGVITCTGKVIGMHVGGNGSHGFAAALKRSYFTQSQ
Sequence of TGEV 3CL protease (P0C6Y5 2879-3180): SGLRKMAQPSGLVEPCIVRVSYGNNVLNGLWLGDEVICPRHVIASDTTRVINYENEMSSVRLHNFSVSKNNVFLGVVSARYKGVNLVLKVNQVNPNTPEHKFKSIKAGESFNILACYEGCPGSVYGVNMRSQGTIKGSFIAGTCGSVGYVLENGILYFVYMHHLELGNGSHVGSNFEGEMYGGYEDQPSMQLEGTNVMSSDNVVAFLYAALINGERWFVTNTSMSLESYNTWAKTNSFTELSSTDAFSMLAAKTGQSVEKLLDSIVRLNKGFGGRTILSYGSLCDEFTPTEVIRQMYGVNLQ
Sequence of recombinant 3C or 3CL of MD145 (Q8V0P3 entry or part of it): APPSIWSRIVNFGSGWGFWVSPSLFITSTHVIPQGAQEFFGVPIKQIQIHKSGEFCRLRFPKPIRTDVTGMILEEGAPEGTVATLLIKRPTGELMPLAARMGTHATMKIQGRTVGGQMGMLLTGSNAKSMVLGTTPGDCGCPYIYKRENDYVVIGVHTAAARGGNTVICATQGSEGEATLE

On to `CC(C)C[C@H](NC(=O)OCc1ccccc1)C(=O)N[C@@H](CC1CCNC1=O)C(O)S(=O)(=O)O` (some centres unmarked) [GC376], for which the EC50 with FIPV-1146 (24 hr post infection, read-out: Inhibition [ED50 (μM)] against FIPV-1146, 24 hrs) was found to be 0.15 ± 0.05 µM; in the assay on FIPV-1146 (48 hr post infection, read-out: Inhibition [ED50 (μM)] against FIPV-1146, 48 hrs), 0.3 ± 0.1 µM; with MNV-1 [2] it was 5.3 µM; in the assay on 229E it was 0.3 µM; in assay [5] it was 1.8 µM; in the assay with FIPV it was 0.2 µM. The EC50 was 10 µM with EV71; 50 µM in the assay on HAV; 0.17 ± 0.11 µM in the assay with FECV-1683 (24 hr post infection, read-out: Inhibition [ED50 (μM)] against FECV-1683, 24 hrs); 0.28 ± 0.1 µM in the assay on FECV-1683 (48 hr post infection, read-out: Inhibition [ED50 (μM)] against FECV-1683, 48 hrs); 35 µM in the assay on FCV [10]; 0.15 µM with TGEV. For the same molecule, in the assay on Teschovirus, the EC50 was determined as 0.15 µM. In addition, the IC50 in [1] turned out to be 0.96 µM; at TGEV 3CL protease it was 0.82 µM; in [3], 1.16 ± 0.75 µM; in assay [4], 0.49 ± 0.05 µM; in assay [6] it was 1.77 ± 0.31 µM; in [7], 9.8 µM. For the same molecule, the IC50 is 6.2 to 7.1 µM in the assay on MNV-1 [8], 1.12 µM in assay [9] and 35 µM in the assay with FCV [11].

On to `CCOC(=O)/C=C/[C@H](C[C@@H]1CCNC1=O)NC(=O)[C@@H](CC(=O)[C@@H](NC(=O)c1cc(C)on1)C(C)C)Cc1ccc(F)cc1` [Rupintrivir, reference compound], for which the IC50 in assay [4] was determined as 0.83 ± 0.19 µM; in assay [12], 0.7 ± 0.19 µM; in assay [6], 1.83 ± 0.38 µM; in [13], 0.34 ± 0.05 µM.
